Measured values from patent US10131679B2, “Substituted dihydropyrrolopyrazole compound” (UBE INDUSTRIES, LTD., priority 2014, dated 2018).

Experiments:
[1] = test system: human large intestine cancer cell line (HCT-116); experiment: Human large intestine cancer (HCT-116) cell growth inhibition test; assay type: cell-based; conditions: 72 h, HCT-116, culture for 3 days, sulforhodamine B absorbance
Procedure: Human Large Intestine Cancer (HCT-116) Cell Growth Inhibition Test
The measurement of a human large intestine cancer cell growth inhibitory effect was carried out by modifying the method of Simak et al. (Cancer Research, 69, 6208 (2009)).
A human large intestine cancer cell line (HCT-116) (manufactured by DS Pharma Biomedical Co., Ltd., Cat. No. EC91091005) was cultured in McCoy's 5a (manufactured by GIBCO/Thermo Fisher Scientific, Inc., REF. 16600-082) medium containing 10% FBS (manufactured by GIBCO/Thermo Fisher Scientific, Inc., REF. 10082-147) and 1% penicillin/streptomycin/amphotericin B (manufactured by GIBCO/Thermo Fisher Scientific, Inc., REF. 15240-096) and inoculated at 1.0×10^3 cells/well in a 96-well plate (manufactured by Corning Inc., REF. 353072). After overnight culture in a carbon dioxide incubator, it was replaced with a fresh McCoy's 5a medium containing 10% FBS on the next day, and a test compound dissolved in DMSO (manufactured by Wako Pure Chemical Industries, Ltd., Code No. 043-07216) (final DMSO concentration: 0.1%) was added and left standing in a carbon dioxide incubator. After culturing for 3 days, the absorbance of each well was measured by using In Vitro Toxicology Assay Kit Sulforhodamine B based (manufactured by Sigma-Aldrich Co. LLC., Pcode 1001910706).
The rate of inhibition of cell growth at each concentration was calculated from the test compound concentration and the absorbance of sulforhodamine B, and the concentration of the test compound necessary for inhibiting 50% of cell growth (IC50 value) was calculated by using EXSUS (version 8.0.0 or version 8.0.1, manufactured by CAC Exicare Corp.).

CDK7 = molecular target: T1, CDK7 (Homo sapiens, UniProt P50613); experiment: CDK7 enzyme inhibition test; assay type: biochemical; conditions: Ki=IC50/(1+S/Km); 33P bound to MBP, [γ-33P]ATP, 30° C. for 20 minutes; read-out: Ki value of CDK7 inhibitory activity
T1 construct: purchased Carna Biosciences, Inc. 04-108
Procedure: CDK7 Enzyme Inhibition Test
The preparation of a buffer solution was performed by mixing a N-2-hydroxyethylpiperazine-N′-2-ethanesulfonic acid buffer solution (HEPES buffer solution) (pH 7.4), dithiothreitol (DTT), Triton X-100, and magnesium chloride (MgCl2). A 500 μM [γ-^33P]ATP solution was used by diluting a 10 mM ATP solution and a commercially available [γ-^33P]ATP solution (manufactured by PerkinElmer, Inc., Code No. NEG-302H) with the buffer solution. A CDK7 solution was used by diluting commercially available CDK7 (manufactured by Carna Biosciences, Inc., Catalog No. 04-108) with the buffer solution. A substrate solution was used by diluting myelin basic protein (MBP) with the buffer solution. As for the preparation of a reaction solution, the buffer solution, the 500 μM [γ-^33P]ATP solution, the CDK7 solution, and the substrate solution were mixed at 4° C. to obtain a reaction solution.
CDK7 enzyme reaction was performed by adding 5 μL of a test compound solution prepared with 10% dimethyl sulfoxide (DMSO)/90% injectable distilled water, and 45 μL of the reaction solution to a 1.5 mL microtube at 4° C. and reacting in the microtube at 30° C. for 20 minutes in a water bath incubator. After the reaction, a 10% aqueous trichloroacetic acid (TCA) solution was added to each microtube while cooled to 4° C., and mixed to terminate the reaction. The resultant was left standing at 4° C. for 10 minutes and then centrifuged in a centrifuge, and the supernatant was discarded. Next, a 2% aqueous TCA solution was added, mixed, and then centrifuged in a centrifuge, and the supernatant was discarded. This washing operation was performed twice. After the washing, precipitates were dissolved in a 1 N aqueous sodium hydroxide (NaOH) solution, and the energy quantity (radioactivity) of the reaction product was measured with a liquid scintillation counter.
The calculation of the inhibitory activity of the test compound against CDK7 was performed as a test compound concentration inhibiting 50% of the amount of ^33P bound to MBP (IC50 value) by using EXSUS (version 8.0.0 or version 8.0.1, manufactured by CAC Exicare Corp.).
The calculation of a Ki value was performed according to the following calculation expression. S means the concentration of ATP contained in the reaction solution, and Km means a Michaelis-Menten constant. Ki=IC50/(1+S/Km)

T1 sequence (P50613 whole entry): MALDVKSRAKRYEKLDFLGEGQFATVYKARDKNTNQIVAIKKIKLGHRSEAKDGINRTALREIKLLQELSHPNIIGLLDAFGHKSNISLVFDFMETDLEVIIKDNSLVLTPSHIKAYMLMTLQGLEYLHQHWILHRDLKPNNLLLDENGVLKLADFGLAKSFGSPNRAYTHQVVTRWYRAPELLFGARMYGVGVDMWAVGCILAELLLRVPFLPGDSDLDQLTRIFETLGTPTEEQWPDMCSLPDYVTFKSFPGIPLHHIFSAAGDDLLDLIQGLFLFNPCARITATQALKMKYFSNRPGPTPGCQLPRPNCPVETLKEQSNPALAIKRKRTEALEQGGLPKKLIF
T1 sequence (P51946 whole entry partner): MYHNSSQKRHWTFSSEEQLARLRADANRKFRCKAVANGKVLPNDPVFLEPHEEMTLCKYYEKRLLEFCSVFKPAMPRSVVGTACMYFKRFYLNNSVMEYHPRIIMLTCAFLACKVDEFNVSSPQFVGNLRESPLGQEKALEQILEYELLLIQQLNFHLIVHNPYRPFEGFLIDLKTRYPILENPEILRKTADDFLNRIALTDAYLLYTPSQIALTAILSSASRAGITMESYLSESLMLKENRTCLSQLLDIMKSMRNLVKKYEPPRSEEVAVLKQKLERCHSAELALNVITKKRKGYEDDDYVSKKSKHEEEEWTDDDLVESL
T1 sequence (P51948 whole entry partner): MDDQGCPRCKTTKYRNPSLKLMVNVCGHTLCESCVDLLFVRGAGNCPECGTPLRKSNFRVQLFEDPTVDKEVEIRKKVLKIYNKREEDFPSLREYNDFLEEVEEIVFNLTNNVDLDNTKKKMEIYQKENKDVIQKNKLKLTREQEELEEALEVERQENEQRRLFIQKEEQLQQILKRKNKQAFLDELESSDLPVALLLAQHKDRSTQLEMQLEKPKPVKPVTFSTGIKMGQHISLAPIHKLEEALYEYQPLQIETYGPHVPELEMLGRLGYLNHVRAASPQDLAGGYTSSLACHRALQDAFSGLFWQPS

Compound | IC50 [1] [nM] | Ki (CDK7) [nM]
CC1(C)c2[nH]nc(NC(=O)C3([Si](C)(C)C)CCC3)c2CN1C(=O)NC[C@H](O)c1ccccc1 [IV-786, (R)—N-(2-Hydroxy-2-phenylethyl)-6,6-dimethyl-3-[1-(trimethylsilyl)cyclobutanecarboxamido]-4,6-dihydropyrrolo[3,4-c]pyrazole-5(1H)-carboxamide] | ≤ 500 | ≤ 50
CC1(C)c2[nH]nc(NC(=O)C3([Si](C)(C)C)CCC3)c2CN1C(=O)NC[C@@H](O)c1ccccc1 [IV-787, (S)—N-(2-Hydroxy-2-phenylethyl)-6,6-dimethyl-3-[1-(trimethylsilyl)cyclobutanecarboxamido]-4,6-dihydropyrrolo[3,4-c]pyrazole-5(1H)-carboxamide] | ≤ 500 | ≤ 50
CC(C)[C@@H](CC(C)(C)O)NC(=O)N1Cc2c(NC(=O)C3([Si](C)(C)C)CCC3)n[nH]c2C1(C)C [IV-815, (R)—N-(5-Hydroxy-2,5-dimethylhexan-3-yl)-6,6-dimethyl-3-[1-(trimethylsilyl)cyclobutanecarboxamido]-4,6-dihydropyrrolo[3,4-c]pyrazole-5(1H)-carboxamide] | ≤ 500 | ≤ 50
CC1(C)c2[nH]nc(NC(=O)C3([Si](C)(C)C)CCC3)c2CN1C(=O)N[C@H](CO)Cc1ccccc1 [IV-862, (S)—N-(1-Hydroxy-3-phenylpropan-2-yl)-6,6-dimethyl-3-[1-(trimethylsilyl)cyclobutanecarboxamido]-4,6-dihydropyrrolo[3,4-c]pyrazole-5(1H)-carboxamide] | ≤ 500 | ≤ 50
CC1(C)c2[nH]nc(NC(=O)C3([Si](C)(C)C)CCC3)c2CN1C(=O)N[C@H](CO)c1ccccc1Cl [IV-959, (S)—N-[1-(2-Chlorophenyl)-2-hydroxyethyl]-6,6-dimethyl-3-[1-(trimethylsilyl)cyclobutanecarboxamido]-4,6-dihydropyrrolo[3,4-c]pyrazole-5(1H)-carboxamide] | ≤ 500 | ≤ 50
Cc1ccccc1[C@@H](CO)NC(=O)N1Cc2c(NC(=O)C3([Si](C)(C)C)CCC3)n[nH]c2C1(C)C [IV-1067, (S)—N-[2-Hydroxy-1-(o-tolyl)ethyl]-6,6-dimethyl-3-[1-(trimethylsilyl)cyclobutanecarboxamido]-4,6-dihydropyrrolo[3,4-c]pyrazole-5(1H)-carboxamide] | ≤ 500 | ≤ 50
CO[C@H](C(=O)N1Cc2c(NC(=O)C3([Si](C)(C)C)CCC3)n[nH]c2C1(C)C)c1ccccc1 [IV-1176, (S)—N-[5-(2-Methoxy-2-phenylacetyl)-6,6-dimethyl-1,4,5,6-tetrahydropyrrolo[3,4-c]pyrazol-3-yl]-1-(trimethylsilyl)cyclobutanecarboxamide] | ≤ 500 | ≤ 50
CC1(C)c2[nH]nc(NC(=O)C3([Si](C)(C)C)CCC3)c2CN1C(=O)[C@@H](CO)c1ccccc1 [IV-1215, (R)—N-[5-(3-Hydroxy-2-phenylpropanoyl)-6,6-dimethyl-1,4,5,6-tetrahydropyrrolo[3,4-c]pyrazol-3-yl]-1-(trimethylsilyl)cyclobutanecarboxamide] | ≤ 500 | ≤ 50
COC(C)C(=O)N1Cc2c(NC(=O)C3([Si](C)(C)C)CCC3)n[nH]c2C1(C)C (centres unmarked) [IV-1241, N-[5-(2-Methoxypropanoyl)-6,6-dimethyl-1,4,5,6-tetrahydropyrrolo[3,4-c]pyrazol-3-yl]-1-(trimethylsilyl)cyclobutanecarboxamide] | ≤ 500 | ≤ 50
CC(Oc1cccnc1)C(=O)N1Cc2c(NC(=O)C3([Si](C)(C)C)CCC3)n[nH]c2C1(C)C (centres unmarked) [IV-1274, N-{6,6-Dimethyl-5-[2-(pyridin-3-yloxy)propanoyl]-1,4,5,6-tetrahydropyrrolo[3,4-c]pyrazol-3-yl}-1-(trimethylsilyl)cyclobutanecarboxamide] | ≤ 500 | ≤ 50
